Patent US9233136B2, “4-amino-4-oxobutanoyl peptides as inhibitors of viral replication” (Achillion Pharmaceuticals, Inc., priority 2006, dated 2016)

The compounds below were run on Hepatitis C replicon in Huh-7 cells (assay: HCV replicon replication assay (NPT ELISA)). Details: Hepatitis C virus, Huh-7, 72 h.
Type: cell-based
Protocol: Compounds claimed herein are tested for the ability to inhibit viral replication of the Hepatitis C replicon in cultured cells in which the HCV replicon construct has been incorporated. The HCV replicon system was described by Bartenschlager, et. al (Science, 285, pp. 110-113 (1999)). The replicon system is predictive of in vivo anti-HCV activity; compounds that are active in humans uniformly evidence activity in the replicon assay.
In this assay HCV replicon containing cells are treated with different concentrations of the test compound to ascertain the ability of the test compound to suppress replication of the HCV replicon. As a positive control, HCV replicon-containing cells are treated with different concentrations of interferon alpha, a known inhibitor of HCV replication. The replicon assay system includes Neomycin Phosphotransferase (NPT) as a component of the replicon itself in order to detect the transcription of replicon gene products in the host cell. Cells in which the HCV replicon is actively replicating have high levels of NPT; the level of NPT is proportional to HCV replication. […] The NPT level of each sample is measured using a captured ELISA.
A protocol for testing compounds for the ability to inhibit viral replication of the Hepatitis C replicon cultured cells in which the replicon construct has been incorporated, follows.
The HCV replicon contains, 5′-3′, the HCV-IRES, the neomycin phosphotransferase (neo) gene, the IRES of encephalomyocarditis virus, which directs translation of HCV sequences NS3 to NS5B, and the 3′-NTR. The sequence of the HCV replicon has been deposited in GenBank (Accession no. AJ242652).
The replicon is transfected into Huh-7 cells using standard methods such as electroporation.
The cells are then seeded onto 96-well plates at a density of 6000-7500 cells/100 microliters/well (6-7.5×10^5 cells/10 ml/plate). The plates are then incubated at 37° C. in a 5% CO2 incubator.
HCV replicon-containing cells are rinsed with once PBS once; 2 mls of trypsin are then added. Cells are incubated at 37° C. in a 5% CO2 incubator for 3-5 minutes. 10 mls of complete medium is added to stop the reaction. Cells are blown gently, put into a 15 ml tube, and spun at 1200 rpm for four minutes. The trypsin/medium solution is removed and 5 mls of medium (500 ml DMEM (high glucose)) from BRL catalog #12430-054; 50 mls 10% FBS, 5% Geneticin G418 (50 mg/ml, BRL catalog #10131-035), 5 ml MEM non-essential amino acids (100×BRL #11140-050) and 5 ml pen-strep (BRL #15140-148) is added. The cells and media are mixed carefully
Cells are plated with screening medium (500 ml DMEM (BRL #21063-029), 50 ml FBS (BRL #10082-147) and 5 ml MEM non-essential amino acid (BRL #11140-050) at 6000-7500 fcells/100 μl/well of 96 well plate (6-7.5×10^5 cells/10 ml/plate). Plates are placed into 37° C. 5% CO2 incubator overnight.
The following morning, drugs (test compounds or interferon alpha) are diluted in 96 well U bottom plates with media or DMSO/media, depending on the final concentration chosen for screening. Generally for 6 concentrations of each test compounds ranging from 10 micromolar to 0.03 micromolar are applied. 100 μl of the test compound dilution is placed in wells of the 96 well plate containing the HCV replicon cells. Media without drug is added to some wells as a negative controls. DMSO is known to affect cell growth. Therefore, if drugs diluted in DMSO are used, all wells, including negative control (media only) and positive control (interferon alpha) wells, must contain the same concentration of DMSO, for single dose screening. The plates are incubated at 37° C. in a humidified 5% CO2 environment for three days.
On day four, the NTPII assay is quantitated. The medium is poured from the plates and the plates are washed once in 200 μl of PBS. The PBS is then decanted and the plates tapped in a paper towel to remove any remaining PBS. […]
In the case of COc1cc(O[C@@H]2C[C@H]3C(=O)N[C@]4(C(=O)O)C[C@H]4/C=C\CCCCC[C@H](CC(=O)N4CCCCC4)C(=O)N3C2)c2ccc(-c3ccccc3)nc2c1 [Compound 52, (2R,6R,13aS,14aR,16aS,Z)-2-(7-methoxy-2-phenylquinolin-4-yloxy)-5,16-dioxo-6-(2-oxo-2-(piperidin-1-yl)ethyl)-1,2,3,5,6,7,8,9,10,11,13a,14,14a,15,16,16a-hexahydrocyclopropa[e]pyrrolo[1,2-a] [1,4]diazacyclopentadecine-14a-carboxylic acid], the EC50 is reported as greater than 10 µM.
Work on C=CC1CC1(NC(=O)[C@@H]1C[C@@H](Oc2cc(-c3ccccc3)nc3cc(OC)ccc23)CN1C(=O)[C@@H](CC(=O)N1CCc2ccccc2C1)C(C)(C)C)C(=O)OCC (stereo partly drawn) [Compound 51, ethyl 1-((2S,4R)-1-((S)-2-tert-butyl-4-(3,4-dihydroisoquinolin-2(1H)-yl)-4-oxobutanoyl)-4-(7-methoxy-2-phenylquinolin-4-yloxy)pyrrolidine-2-carboxamido)-2-vinylcyclopropanecarboxylate] yielded an EC50 greater than 10 µM.
C=CC1CC1(NC(=O)[C@@H]1C[C@@H](Oc2cc(-c3ccccc3)nc3cc(OC)ccc23)CN1C(=O)[C@@H](CC(=O)N1CCCCC1)C(C)(C)C)C(=O)NS(=O)(=O)C1CC1 (stereo partly drawn) [Compound 49, (2S,4R)-1-((S)-2-tert-butyl-4-oxo-4-(piperidin-1-yl)butanoyl)-N-(1-(cyclopropylsulfonylcarbamoyl)-2-vinylcyclopropyl)-4-(7-methoxy-2-phenylquinolin-4-yloxy)pyrrolidine-2-carboxamide] was tested, and the EC50 was less than 0.1 µM.
